This note sets out measurements from ChEMBL document CHEMBL5252561, “Evaluation of darunavir-derived HIV-1 protease inhibitors incorporating P2' amide-derivatives: Synthesis, biological evaluation and structural studies” (Bioorg Med Chem Lett, 2023).

Where only a bound is given, the exact number is not on record here.

Assay [1] concerns Human immunodeficiency virus. Description: Antiviral activity against HIV LAI infected in human MT-2 cells assessed as inhibition of viral growth. The assay is classed as functional, organism-based. The conditions noted are these: Human immunodeficiency virus 1, LAI, MT2.
Assay [2] addresses Human immunodeficiency virus type 1 protease (Human immunodeficiency virus 1, UniProt Q72874). The assay is described as follows: Inhibition of HIV-1 protease using Abz-NF-6 as substrate assessed as inhibition constant measured every 2 mins for 20 mins by fluorescence based […] analysis. A general note: ELISA stands for enzyme-linked immunosorbent assay.
The subject of assay [3] is Human immunodeficiency virus. The assay is described as follows: Potency index, ratio of test compound IC50 to darunavir IC50 for antiviral activity against HIV LAI infected in human MT-2 cells assessed as inhibition of viral growth. The assay is classed as functional, MT2.

A word on the IC50: it is the concentration at which inhibition is half-maximal. What is called Ki is a dissociation constant, usually derived from enzyme kinetics or from competition with a known ligand. With `CC(C)CN(C[C@@H](O)[C@H](Cc1ccccc1)NC(=O)O[C@H]1CO[C@H]2OCC[C@H]21)S(=O)(=O)c1ccc(NC(=O)CCl)cc1`, in assay [1], the IC50 amounted to 32 nM. In addition, in assay [2], the Ki was determined as 0.0044 nM.

Consider `CC(=O)Nc1ccc(S(=O)(=O)N(CC(C)C)C[C@@H](O)[C@H](Cc2ccccc2)NC(=O)O[C@H]2CO[C@H]3OCC[C@H]32)cc1`, for which the “Ratio IC50” value in assay [3] turned out to be 10. Also, the 50% inhibitory concentration (IC50) in assay [1] was 29 nM. Further, in assay [2], the Ki was 0.0006 nM.

`CC(C)CN(C[C@@H](O)[C@H](Cc1ccccc1)NC(=O)O[C@H]1CO[C@H]2OCC[C@H]21)S(=O)(=O)c1ccc(NC(=O)CNC(C)C)cc1`: the IC50 in assay [1] turned out to be 31 nM. Moreover, the Ki in assay [2] is 0.388 nM.

Take `CC(C)CN(C[C@@H](O)[C@H](Cc1ccccc1)NC(=O)O[C@H]1CO[C@H]2OCC[C@H]21)S(=O)(=O)c1ccc(NC(=O)[C@@H](NC(=O)OC(C)(C)C)C(C)C)cc1`: in assay [1], the IC50 came to 540 nM. Further, the Ki in assay [2] turned out to be 178 nM.

Regarding `CC(C)CN(C[C@@H](O)[C@H](Cc1ccccc1)NC(=O)O[C@H]1CO[C@H]2OCC[C@H]21)S(=O)(=O)c1ccc(NC(=O)CN)cc1`, the inhibition constant Ki in assay [2] came to 0.0921 nM.

Turning to `CC(C)CN(C[C@@H](O)[C@H](Cc1ccccc1)NC(=O)O[C@H]1CO[C@H]2OCC[C@H]21)S(=O)(=O)c1ccc(C(N)=O)cc1`, the IC50 in assay [1] was determined as 93 nM.

With `CCN(CC)CC(=O)Nc1ccc(S(=O)(=O)N(CC(C)C)C[C@@H](O)[C@H](Cc2ccccc2)NC(=O)O[C@H]2CO[C@H]3OCC[C@H]32)cc1`, the half-maximal inhibitory concentration (IC50) in assay [1] is greater than 1000 nM. Also, the Ki in assay [2] is 0.302 nM.

In the case of `CC(C)CN(C[C@@H](O)[C@H](Cc1ccccc1)NC(=O)O[C@H]1CO[C@H]2OCC[C@H]21)S(=O)(=O)c1ccc(NC(=O)[C@@H](N)C(C)C)cc1`, the concentration for half-maximal inhibition (IC50) in assay [1] came to 25 nM. Moreover, the Ki in assay [2] turned out to be 0.445 nM.

With `CC(C)CN(C[C@@H](O)[C@H](Cc1ccccc1)NC(=O)O[C@H]1CO[C@H]2OCC[C@H]21)S(=O)(=O)c1ccc(NC(=O)CNC(=O)OC(C)(C)C)cc1`, the Ki in assay [2] amounted to 310 nM.

For `CC(C)CN(C[C@@H](O)[C@H](Cc1ccccc1)NC(=O)O[C@H]1CO[C@H]2OCC[C@H]21)S(=O)(=O)c1ccc(NC(=O)CN(C)C)cc1`, in assay [1], the IC50 was greater than 1000 nM. In addition, the Ki in assay [2] is 0.0015 nM.

`CCNCC(=O)Nc1ccc(S(=O)(=O)N(CC(C)C)C[C@@H](O)[C@H](Cc2ccccc2)NC(=O)O[C@H]2CO[C@H]3OCC[C@H]32)cc1`: the concentration for half-maximal inhibition (IC50) in assay [1] stood at 280 nM. In assay [2], the inhibition constant (Ki) turned out to be 0.0091 nM.

Regarding `CC(C)CN(C[C@@H](O)[C@H](Cc1ccccc1)NC(=O)O[C@H]1CO[C@H]2OCC[C@H]21)S(=O)(=O)c1ccc(N)cc1`, in assay [1], the IC50 was determined as 1.6 nM.

Regarding `CC(C)CN(C[C@@H](O)[C@H](Cc1ccccc1)NC(=O)O[C@H]1CO[C@H]2OCC[C@H]21)S(=O)(=O)c1ccc(NC(=O)[C@H](NC(=O)OC(C)(C)C)C(C)C)cc1`, the half-inhibitory concentration (IC50) in assay [1] turned out to be 430 nM. For the same molecule, the Ki in assay [2] came to 337 nM.

With `CC(C)CN(C[C@@H](O)[C@H](Cc1ccccc1)NC(=O)O[C@H]1CO[C@H]2OCC[C@H]21)S(=O)(=O)c1ccc(C(=O)O)cc1`, the IC50 in assay [1] is greater than 1000 nM.

Take `CC(C)CN(C[C@@H](O)[C@H](Cc1ccccc1)NC(=O)O[C@H]1CO[C@H]2OCC[C@H]21)S(=O)(=O)c1ccc(NC(=O)CN[C@H](C)c2ccccc2)cc1`: the IC50 in assay [1] was found to be 39 nM. In assay [2], the Ki stood at 0.0053 nM.
